Assay results: patent publication US12171255B2, “Shisha, heat-not-burn, or combustion casing, product, and method of making the same” (Tobacco Technology, Inc., priority 2020, dated 2024)

Tested on: microbial growth
Test: Inhibition of microbial growth (preservative effect)

Row | SMILES | effectiveness at inhibiting microbial growth compared with propylene glycol | amount that can inhibit microbial growth and act as a preservative (in casing)
1 | O=C(O)CC(O)(CC(=O)O)C(=O)O [citric acid] | more effective at inhibiting microbial growth than propylene glycol | 
2 | CC(O)CO (centres unmarked) [propylene glycol] |  | above 15 % by weight
